Experimental findings from US9556130B2, “4-oxo-3,4-dihydro-1,2,3-benzotriazine modulators of GPR139” (Takeda Pharmaceutical Company Limited, priority 2014, dated 2017) are described below.

Assay [1] concerns the target T1, human GPR139 receptor (Homo sapiens (Human), UniProt Q6DWJ6). The assay can be described thus: Activation of Calcium Signaling of GPR139 In Vitro Assay.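 Further: receptor expression induced with doxycycline, calcium fluorescence read continuously for one minute after compound addition, EC50 taken from a four-parameter logistic fit.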 In kind it is cell-based. As to conditions: stably transfected CHO-TRex cells, Calcium 5 dye, FLIPR Tetra.
Assay [2] has as its target T1, human GPR139 receptor. Put plainly: GPR139 Competition Binding.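 Further: receptor expression induced with doxycycline before membrane preparation, bound radioactivity counted by scintillation, Ki fitted with a four-parameter logistic model.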 As to conditions: stably transfected CHO-TRex membranes, 1 nM 3H radioligand; read-out: GPR139 Inhibition (Ki (nM)).

T1 sequence (Q6DWJ6 whole entry): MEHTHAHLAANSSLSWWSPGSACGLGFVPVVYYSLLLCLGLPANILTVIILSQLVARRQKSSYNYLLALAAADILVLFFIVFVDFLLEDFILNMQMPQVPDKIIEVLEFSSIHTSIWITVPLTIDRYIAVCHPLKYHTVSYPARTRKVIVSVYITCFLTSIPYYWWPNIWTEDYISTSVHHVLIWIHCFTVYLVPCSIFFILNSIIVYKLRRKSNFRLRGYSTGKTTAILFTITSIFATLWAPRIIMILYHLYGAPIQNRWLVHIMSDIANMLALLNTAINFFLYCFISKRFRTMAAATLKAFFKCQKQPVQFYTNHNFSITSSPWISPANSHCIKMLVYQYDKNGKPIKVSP

Consider `C[C@H](NC(=O)Cn1nnc2ccc(F)cc2c1=O)c1ccc(OC(F)F)cc1` [Example 68, (S)—N-(1-(4-(difluoromethoxy)phenyl)ethyl)-2-(6-fluoro-4-oxobenzo[d][1,2,3]triazin-3(4H)-yl)acetamide], for which the EC50 (as a rule, the concentration giving half of the maximal effect) on human GPR139 receptor [1] came out at 10 nM. The inhibition constant (Ki) (in general, the equilibrium dissociation constant of an inhibitor or competing ligand from its target) at human GPR139 receptor [2] came out at 282 nM.

As for `CC[C@H](NC(=O)Cn1nnc2ccccc2c1=O)c1ccc(C(F)(F)F)cc1` [Example 87, (S)-2-(4-oxobenzo[d][1,2,3]triazin-3 (4H)-yl)-N-(1-(4-(trifluoromethyl)phenyl)propyl)acetamide], the EC50 at human GPR139 receptor [1] was determined as 31 nM. Also, on human GPR139 receptor [2], the inhibition constant (Ki) is 214 nM.

With `COc1ccc([C@H](C)NC(=O)Cn2nnc3cc(C)ccc3c2=O)cc1` [Example 35, (S)—N-(1-(4-methoxyphenyl)ethyl)-2-(7-methyl-4-oxobenzo[d][1,2,3]triazin-3(4H)-yl)acetamide], on human GPR139 receptor [1], the EC50 came out at 42 nM. Further, on human GPR139 receptor [2], the Ki was 1520 nM.

Turning to `C[C@H](NC(=O)Cn1nnc2ccc(F)cc2c1=O)c1ccc(OC(F)(F)F)cc1F` [Example 71, (S)—N-(1-(2-fluoro-4-(trifluoromethoxy)phenyl)ethyl)-2-(6-fluoro-4-oxobenzo[d][1,2,3]triazin-3(4H)-yl)acetamide], on human GPR139 receptor [1], the EC50 stood at 49 nM.

Turning to `C[C@H](NC(=O)Cn1nnc2ccc(F)cc2c1=O)c1ccc(OC(F)(F)F)cc1` [Example 55, (S)-2-(6-fluoro-4-oxobenzo[d][1,2,3]triazin-3(4H)-yl)-N-(1-(4-(trifluoromethoxy)phenyl)ethyl)acetamide], the half-maximal effective concentration (EC50) at human GPR139 receptor [1] came out at 38 nM. For the same compound, at human GPR139 receptor [2], the inhibition constant (Ki) was 42 nM.

`COc1cccc2nnn(CC(=O)N[C@@H](C)c3ccc(C(F)(F)F)cc3)c(=O)c12` [Example 61, (S)-2-(5-methoxy-4-oxobenzo[d][1,2,3]triazin-3 (4H)-yl)-N-(1-(4-(trifluoromethyl)phenyl)ethyl)acetamide]: the EC50 on human GPR139 receptor [1] came to 15 nM. Also, the Ki at human GPR139 receptor [2] is 26 nM.

For `COc1cccc2c(=O)n(CC(=O)N[C@@H](C)c3ccc(OC(F)(F)F)cc3)nnc12` [Example 62, (S)-2-(8-methoxy-4-oxobenzo[d][1,2,3]triazin-3(4H)-yl)-N-(1-(4-(trifluoromethoxy)phenyl)ethyl)acetamide], the EC50 at human GPR139 receptor [1] worked out at 25 nM. Also, on human GPR139 receptor [2], the Ki is 240 nM.

For `Cc1ccc([C@H](C)NC(=O)Cn2nnc3cc(Cl)ccc3c2=O)cc1` [Example 21, (S)-2-(7-chloro-4-oxobenzo[d][1,2,3]triazin-3(4H)-yl)-N-(1-p-tolylethyl)acetamide], the EC50 at human GPR139 receptor [1] was determined as 17 nM. For the same compound, the inhibitory constant (Ki) on human GPR139 receptor [2] was found to be 173 nM.

In the case of `COc1ccc2nnn(CC(=O)N[C@@H](C)c3ccc(OC(F)(F)F)cc3)c(=O)c2c1` [Example 57, (S)-2-(6-methoxy-4-oxobenzo[d][1,2,3]triazin-3(4H)-yl)-N-(1-(4-(trifluoromethoxy)phenyl)ethyl)acetamide], the EC50 on human GPR139 receptor [1] came out at 43 nM. Further, the Ki on human GPR139 receptor [2] was 128 nM.

`Cc1ccc([C@H](C)NC(=O)Cn2nnc3ccc(F)cc3c2=O)c(C)c1` [Example 52, (S)—N-(1-(2,4-dimethylphenyl)ethyl)-2-(6-fluoro-4-oxobenzo[d][1,2,3]triazin-3(4H)-yl)acetamide]: the concentration for a half-maximal effect (EC50) at human GPR139 receptor [1] is 24 nM. The inhibition constant Ki at human GPR139 receptor [2] turned out to be 39 nM.

Consider `COc1cc(C)ccc1[C@H](C)NC(=O)[C@H](C)n1nnc2ccccc2c1=O` [Example 50, (S)—N—((S)-1-(2-methoxy-4-methylphenyl)ethyl)-2-(4-oxobenzo[d][1,2,3]triazin-3(4H)-yl)propanamide], for which the concentration for a half-maximal effect (EC50) at human GPR139 receptor [1] amounted to 52 nM.

In the case of `COc1ccc([C@H](C)NC(=O)Cn2nnc3c(OC)cccc3c2=O)cc1` [Example 31, (S)-2-(8-methoxy-4-oxobenzo[d][1,2,3]triazin-3 (4H)-yl)-N-(1-(4-methoxyphenyl)ethyl)acetamide], the EC50 on human GPR139 receptor [1] came out at 39 nM.

For `COc1ccc2nnn(CC(=O)N[C@@H](C)c3ccc(C(F)(F)F)cc3)c(=O)c2c1` [Example 60, (S)-2-(6-methoxy-4-oxobenzo[d][1,2,3]triazin-3(4H)-yl)-N-(1-(4-(trifluoromethyl)phenyl)ethyl)acetamide], at human GPR139 receptor [1], the EC50 was 18 nM. In addition, on human GPR139 receptor [2], the inhibitory constant (Ki) turned out to be 115 nM.

As for `Cc1ccc([C@H](C)NC(=O)Cn2nnc3c(C)cc(C)cc3c2=O)cc1` [Example 41, (S)-2-(6,8-dimethyl-4-oxobenzo[d][1,2,3]triazin-3(4H)-yl)-N-(1-p-tolylethyl)acetamide], the concentration for a half-maximal effect (EC50) at human GPR139 receptor [1] was 7 nM. Also, the Ki at human GPR139 receptor [2] came to 10 nM.

As for `COc1ccc([C@H](C)NC(=O)Cn2nnc3c(F)cccc3c2=O)cc1` [Example 17, (S)-2-(8-fluoro-4-oxobenzo[d][1,2,3]triazin-3(4H)-yl)-N-(1-(4-methoxyphenyl)ethyl)acetamide], the 50% effective concentration (EC50) on human GPR139 receptor [1] was determined as 27 nM. Besides, the inhibition constant (Ki) at human GPR139 receptor [2] is 3600 nM.

For `Cc1ccc([C@H](C)NC(=O)Cn2nnc3c(Cl)cccc3c2=O)cc1` [Example 22, (S)-2-(8-chloro-4-oxobenzo[d][1,2,3]triazin-3(4H)-yl)-N-(1-p-tolylethyl)acetamide], the EC50 at human GPR139 receptor [1] came to 7 nM. The inhibition constant Ki on human GPR139 receptor [2] is 110 nM.

On to `COc1ccc2c(=O)n(CC(=O)N[C@@H](C)c3ccc(OC(F)(F)F)cc3)nnc2c1` [Example 56, (S)-2-(7-methoxy-4-oxobenzo[d][1,2,3]triazin-3(4H)-yl)-N-(1-(4-(trifluoromethoxy)phenyl)ethyl)acetamide], for which, on human GPR139 receptor [1], the half-maximal effective concentration (EC50) came out at 37 nM. For the same compound, the inhibition constant Ki at human GPR139 receptor [2] worked out at 218 nM.

Consider `COc1ccc([C@H](C)NC(=O)Cn2nnc3c(Cl)cccc3c2=O)cc1` [Example 23, (S)-2-(8-chloro-4-oxobenzo[d][1,2,3]triazin-3(4H)-yl)-N-(1-(4-methoxyphenyl)ethyl)acetamide], for which the half-maximal effective concentration (EC50) at human GPR139 receptor [1] was 13 nM. Also, at human GPR139 receptor [2], the inhibition constant (Ki) stood at 842 nM.

`Cc1ccc([C@H](C)NC(=O)Cn2nnc3c(Cl)cc(Cl)cc3c2=O)cc1` [Example 26, (S)-2-(6,8-dichloro-4-oxobenzo[d][1,2,3]triazin-3(4H)-yl)-N-(1-p-tolylethyl)acetamide]: the EC50 at human GPR139 receptor [1] was determined as 16 nM. The Ki at human GPR139 receptor [2] turned out to be 26 nM.

Consider `C[C@H](NC(=O)Cn1nnc2ccccc2c1=O)c1ccc(F)cc1Cl` [Example 47, (S)—N-(1-(2-chloro-4-fluorophenyl)ethyl)-2-(4-oxobenzo[d][1,2,3]triazin-3(4H)-yl)acetamide], for which, on human GPR139 receptor [1], the EC50 was 14 nM.

On to `C[C@H](NC(=O)Cn1nnc2ccccc2c1=O)c1ccc(F)cc1Br` [Example 48, (S)—N-(1-(2-bromo-4-fluorophenyl)ethyl)-2-(4-oxobenzo[d][1,2,3]triazin-3(4H)-yl)acetamide], for which the EC50 at human GPR139 receptor [1] came out at 1510 nM.

With `COc1cc(C)ccc1[C@H](C)NC(=O)[C@@H](C)n1nnc2ccccc2c1=O` [Example 51, (R)—N—((S)-1-(2-methoxy-4-methylphenyl)ethyl)-2-(4-oxobenzo[d][1,2,3]triazin-3(4H)-yl)propanamide], the half-maximal effective concentration (EC50) at human GPR139 receptor [1] came to 16 nM.

As to `COc1ccc(CCN(C)C(=O)Cn2nnc3ccccc3c2=O)cc1` [Example 78, N-(4-methoxyphenethyl)-N-methyl-2-(4-oxobenzo[d][1,2,3]triazin-3(4H)-yl)acetamide], the EC50 at human GPR139 receptor [1] came out at 80 nM.

On to `COc1ccc([C@H](C)NC(=O)Cn2nnc3ccc(C)cc3c2=O)cc1` [Example 29, (S)—N-(1-(4-methoxyphenyl)ethyl)-2-(6-methyl-4-oxobenzo[d][1,2,3]triazin-3(4H)-yl)acetamide], for which the EC50 on human GPR139 receptor [1] came to 19 nM.
